Source: ChEMBL document CHEMBL5649169 (ChemMedChem, 2018)

Legend:
[1] = target: Ephrin type-B receptor 6 (Homo sapiens) (UniProt O15197)
[2] = target: Thioredoxin-related transmembrane protein 1 (Homo sapiens) (UniProt Q9H3N1)
[3] = target: Protein S100-A11 (Homo sapiens) (UniProt P31949)
[4] = target: Succinate--CoA ligase [ADP/GDP-forming] subunit alpha, mitochondrial (Homo sapiens) (UniProt P53597)
[5] = target: Prohibitin 1 (Homo sapiens) (UniProt P35232)
[6] = target: MMS19 nucleotide excision repair protein homolog (Homo sapiens) (UniProt Q96T76)
MMS19 nucleotide excision repair protein homolog (Homo sapiens), sequence (Q96T76 whole entry): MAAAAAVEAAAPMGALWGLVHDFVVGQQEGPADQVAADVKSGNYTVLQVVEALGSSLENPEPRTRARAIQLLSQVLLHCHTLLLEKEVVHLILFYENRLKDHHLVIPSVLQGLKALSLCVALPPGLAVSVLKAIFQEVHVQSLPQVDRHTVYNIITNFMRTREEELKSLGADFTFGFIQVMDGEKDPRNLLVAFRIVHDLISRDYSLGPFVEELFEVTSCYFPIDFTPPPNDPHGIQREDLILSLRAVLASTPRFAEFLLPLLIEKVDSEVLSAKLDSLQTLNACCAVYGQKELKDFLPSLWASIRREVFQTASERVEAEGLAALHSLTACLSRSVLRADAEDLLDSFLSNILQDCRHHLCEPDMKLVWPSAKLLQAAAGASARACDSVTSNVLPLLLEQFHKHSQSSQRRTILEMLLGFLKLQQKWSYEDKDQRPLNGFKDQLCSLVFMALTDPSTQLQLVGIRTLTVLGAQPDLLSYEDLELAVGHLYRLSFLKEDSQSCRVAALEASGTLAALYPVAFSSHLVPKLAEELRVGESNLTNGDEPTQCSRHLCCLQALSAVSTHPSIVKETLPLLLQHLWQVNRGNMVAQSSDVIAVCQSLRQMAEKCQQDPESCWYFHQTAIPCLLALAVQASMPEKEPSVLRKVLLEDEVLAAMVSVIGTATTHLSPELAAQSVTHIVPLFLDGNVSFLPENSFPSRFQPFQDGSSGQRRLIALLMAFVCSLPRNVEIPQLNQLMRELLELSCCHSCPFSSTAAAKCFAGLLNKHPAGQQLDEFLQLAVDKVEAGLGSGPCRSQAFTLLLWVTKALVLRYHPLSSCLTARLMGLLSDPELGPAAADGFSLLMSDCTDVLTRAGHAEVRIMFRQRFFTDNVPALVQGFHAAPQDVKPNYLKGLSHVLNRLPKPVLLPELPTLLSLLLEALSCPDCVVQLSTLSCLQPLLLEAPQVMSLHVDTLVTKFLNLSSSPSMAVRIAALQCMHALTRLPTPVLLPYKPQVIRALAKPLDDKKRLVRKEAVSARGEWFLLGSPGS

[7] = target: Misshapen-like kinase 1 (Homo sapiens) (UniProt Q8N4C8)
[8] = target: Transgelin-2 (Homo sapiens) (UniProt P37802)
[9] = target: Acidic fibroblast growth factor intracellular-binding protein (Homo sapiens) (UniProt O43427)
[10] = target: Epithelial discoidin domain-containing receptor 1 (Homo sapiens) (UniProt Q08345)
[11] = target: tRNA (guanosine(18)-2'-O)-methyltransferase TARBP1 (Homo sapiens) (UniProt Q13395)
[12] = target: Dihydrolipoyl dehydrogenase, mitochondrial (Homo sapiens) (UniProt P09622)
Dihydrolipoyl dehydrogenase, mitochondrial (Homo sapiens), sequence (P09622 whole entry): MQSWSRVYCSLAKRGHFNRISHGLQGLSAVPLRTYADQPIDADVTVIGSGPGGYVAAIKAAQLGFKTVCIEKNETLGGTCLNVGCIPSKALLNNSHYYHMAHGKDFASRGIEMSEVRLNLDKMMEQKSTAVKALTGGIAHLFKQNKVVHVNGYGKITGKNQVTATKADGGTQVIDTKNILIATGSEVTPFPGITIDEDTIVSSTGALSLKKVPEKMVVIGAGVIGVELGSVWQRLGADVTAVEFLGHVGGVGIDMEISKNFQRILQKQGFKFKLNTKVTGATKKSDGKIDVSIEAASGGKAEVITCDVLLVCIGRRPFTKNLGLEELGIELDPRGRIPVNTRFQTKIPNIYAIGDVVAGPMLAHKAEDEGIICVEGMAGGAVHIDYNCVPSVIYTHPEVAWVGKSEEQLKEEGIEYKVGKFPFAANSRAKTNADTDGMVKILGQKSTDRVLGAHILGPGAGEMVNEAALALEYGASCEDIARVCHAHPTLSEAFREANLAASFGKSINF

[13] = target: Large ribosomal subunit protein eL21 (Homo sapiens) (UniProt P46778)
[14] = target: Phosphorylase b kinase gamma catalytic chain, liver/testis isoform (Homo sapiens) (UniProt P15735)
Phosphorylase b kinase gamma catalytic chain, liver/testis isoform (Homo sapiens), sequence (P15735 whole entry, canonical isoform): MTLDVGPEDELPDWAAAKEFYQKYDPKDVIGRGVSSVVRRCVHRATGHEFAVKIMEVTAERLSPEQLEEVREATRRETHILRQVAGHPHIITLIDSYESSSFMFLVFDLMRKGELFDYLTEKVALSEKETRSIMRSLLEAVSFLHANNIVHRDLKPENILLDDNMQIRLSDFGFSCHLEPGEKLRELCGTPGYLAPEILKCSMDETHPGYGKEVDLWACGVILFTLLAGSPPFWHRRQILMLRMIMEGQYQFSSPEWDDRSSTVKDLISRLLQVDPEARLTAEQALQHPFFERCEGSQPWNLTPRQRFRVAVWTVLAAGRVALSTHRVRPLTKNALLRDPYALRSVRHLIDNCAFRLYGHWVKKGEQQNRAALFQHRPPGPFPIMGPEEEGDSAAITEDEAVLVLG

[15] = target: Protein MAL2 (Homo sapiens) (UniProt Q969L2)
Protein MAL2 (Homo sapiens), sequence (Q969L2 whole entry): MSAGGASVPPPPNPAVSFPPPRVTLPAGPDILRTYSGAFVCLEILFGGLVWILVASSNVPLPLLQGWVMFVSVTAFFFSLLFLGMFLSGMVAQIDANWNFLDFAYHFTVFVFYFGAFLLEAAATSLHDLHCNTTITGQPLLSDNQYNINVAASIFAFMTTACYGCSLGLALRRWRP

[16] = target: Emerin (Homo sapiens) (UniProt P50402)
[17] = target: Wolframin (Homo sapiens) (UniProt O76024)
[18] = target: DAZ-associated protein 1 (Homo sapiens) (UniProt Q96EP5)
[19] = target: Protein kinase C theta type (Homo sapiens) (UniProt Q04759)
Protein kinase C theta type (Homo sapiens), sequence (Q04759 whole entry, looked up): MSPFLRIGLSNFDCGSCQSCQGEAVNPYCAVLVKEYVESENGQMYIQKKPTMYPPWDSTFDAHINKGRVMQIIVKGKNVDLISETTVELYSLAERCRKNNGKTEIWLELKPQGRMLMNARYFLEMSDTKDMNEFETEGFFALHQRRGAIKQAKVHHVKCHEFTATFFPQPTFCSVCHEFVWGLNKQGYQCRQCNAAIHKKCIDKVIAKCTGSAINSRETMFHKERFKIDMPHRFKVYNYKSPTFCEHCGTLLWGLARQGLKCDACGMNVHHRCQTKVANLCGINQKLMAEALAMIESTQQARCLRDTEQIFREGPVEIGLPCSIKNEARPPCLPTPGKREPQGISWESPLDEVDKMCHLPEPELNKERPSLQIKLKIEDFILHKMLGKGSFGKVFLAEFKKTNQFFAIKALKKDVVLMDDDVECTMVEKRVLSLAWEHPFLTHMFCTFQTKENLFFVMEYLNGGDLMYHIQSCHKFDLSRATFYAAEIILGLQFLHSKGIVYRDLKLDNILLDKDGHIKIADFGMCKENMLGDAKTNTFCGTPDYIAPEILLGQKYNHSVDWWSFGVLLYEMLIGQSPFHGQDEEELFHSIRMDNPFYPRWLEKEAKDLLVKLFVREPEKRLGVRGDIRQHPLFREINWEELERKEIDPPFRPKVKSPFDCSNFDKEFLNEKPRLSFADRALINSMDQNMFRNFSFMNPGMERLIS

[20] = target: Rho-associated protein kinase 1 (Homo sapiens) (UniProt Q13464)
[21] = target: Prelamin-A/C (Homo sapiens) (UniProt P02545)
[22] = target: Ribosomal protein S6 kinase alpha-3 (Homo sapiens) (UniProt P51812)
[23] = target: Ras-related protein Rab-8A (Homo sapiens) (UniProt P61006)
[24] = target: Maternal embryonic leucine zipper kinase (Homo sapiens) (UniProt Q14680)
[25] = target: Protein diaphanous homolog 1 (Homo sapiens) (UniProt O60610)
[26] = target: Dual specificity protein kinase CLK2 (Homo sapiens) (UniProt P49760)
[27] = target: 116 kDa U5 small nuclear ribonucleoprotein component (Homo sapiens) (UniProt Q15029)
[28] = target: ADP/ATP translocase 1 (Homo sapiens) (UniProt P12235)
[29] = target: 14-3-3 protein eta (Homo sapiens) (UniProt Q04917)
[30] = target: Calcium/calmodulin-dependent protein kinase type II subunit beta (Homo sapiens) (UniProt Q13554)
Calcium/calmodulin-dependent protein kinase type II subunit beta (Homo sapiens), sequence (Q13554 whole entry): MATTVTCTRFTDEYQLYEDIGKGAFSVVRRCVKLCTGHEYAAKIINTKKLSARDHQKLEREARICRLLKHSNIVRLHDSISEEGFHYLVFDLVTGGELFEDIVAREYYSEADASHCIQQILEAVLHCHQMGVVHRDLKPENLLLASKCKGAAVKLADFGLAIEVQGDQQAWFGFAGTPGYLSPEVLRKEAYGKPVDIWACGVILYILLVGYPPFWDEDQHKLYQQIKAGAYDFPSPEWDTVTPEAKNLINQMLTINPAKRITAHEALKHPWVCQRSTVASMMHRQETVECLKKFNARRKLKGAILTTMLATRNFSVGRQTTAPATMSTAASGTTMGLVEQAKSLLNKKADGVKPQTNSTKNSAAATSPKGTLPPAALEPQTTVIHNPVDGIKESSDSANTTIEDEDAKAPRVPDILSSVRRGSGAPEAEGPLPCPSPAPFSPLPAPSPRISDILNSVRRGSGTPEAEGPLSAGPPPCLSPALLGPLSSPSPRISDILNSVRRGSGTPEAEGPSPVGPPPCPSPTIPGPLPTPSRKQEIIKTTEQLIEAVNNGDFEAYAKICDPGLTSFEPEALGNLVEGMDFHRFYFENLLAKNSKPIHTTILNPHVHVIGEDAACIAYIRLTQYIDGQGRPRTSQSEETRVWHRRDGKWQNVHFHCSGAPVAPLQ

[31] = target: Synaptic vesicle membrane protein VAT-1 homolog (Homo sapiens) (UniProt Q99536)
Synaptic vesicle membrane protein VAT-1 homolog (Homo sapiens), sequence (Q99536 whole entry): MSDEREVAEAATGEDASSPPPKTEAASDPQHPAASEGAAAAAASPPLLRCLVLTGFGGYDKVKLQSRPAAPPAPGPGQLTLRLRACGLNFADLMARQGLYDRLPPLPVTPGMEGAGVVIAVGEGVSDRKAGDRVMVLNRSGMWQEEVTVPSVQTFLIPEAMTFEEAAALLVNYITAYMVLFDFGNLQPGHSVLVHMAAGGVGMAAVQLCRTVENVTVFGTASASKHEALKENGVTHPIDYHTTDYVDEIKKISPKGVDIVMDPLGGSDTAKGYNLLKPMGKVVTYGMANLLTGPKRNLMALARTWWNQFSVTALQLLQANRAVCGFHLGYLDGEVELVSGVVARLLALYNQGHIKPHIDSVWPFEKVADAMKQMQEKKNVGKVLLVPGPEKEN

[32] = target: Peflin (Homo sapiens) (UniProt Q9UBV8)
[33] = target: ELAV-like protein 1 (Homo sapiens) (UniProt Q15717)
[34] = target: Serine/threonine-protein kinase B-raf (Homo sapiens) (UniProt P15056)
[35] = organism: Homo sapiens
[36] = target: Large ribosomal subunit protein eL20 (Homo sapiens) (UniProt Q02543)
[37] = target: Glycogen synthase kinase-3 alpha (Homo sapiens) (UniProt P49840)
[38] = target: Protein disulfide-isomerase (Homo sapiens) (UniProt P07237)
[39] = target: Tubulin beta-6 chain (Homo sapiens) (UniProt Q9BUF5)
[40] = target: Nuclear transport factor 2 (Homo sapiens) (UniProt P61970)
Nuclear transport factor 2 (Homo sapiens), sequence (P61970 whole entry): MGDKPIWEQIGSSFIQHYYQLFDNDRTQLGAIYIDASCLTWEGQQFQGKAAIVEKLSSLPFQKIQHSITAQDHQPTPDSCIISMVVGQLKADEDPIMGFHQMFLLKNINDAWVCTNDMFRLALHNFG

[41] = target: Proteasome subunit alpha type-6 (Homo sapiens) (UniProt P60900)
[42] = target: Mitogen-activated protein kinase kinase kinase 11 (Homo sapiens) (UniProt Q16584)
[43] = target: Large ribosomal subunit protein eL8 (Homo sapiens) (UniProt P62424)
[44] = organism: Homo sapiens; remark: listed apart in the source
[45] = target: Eukaryotic translation initiation factor 4B (Homo sapiens) (UniProt P23588)
Eukaryotic translation initiation factor 4B (Homo sapiens), sequence (P23588 whole entry): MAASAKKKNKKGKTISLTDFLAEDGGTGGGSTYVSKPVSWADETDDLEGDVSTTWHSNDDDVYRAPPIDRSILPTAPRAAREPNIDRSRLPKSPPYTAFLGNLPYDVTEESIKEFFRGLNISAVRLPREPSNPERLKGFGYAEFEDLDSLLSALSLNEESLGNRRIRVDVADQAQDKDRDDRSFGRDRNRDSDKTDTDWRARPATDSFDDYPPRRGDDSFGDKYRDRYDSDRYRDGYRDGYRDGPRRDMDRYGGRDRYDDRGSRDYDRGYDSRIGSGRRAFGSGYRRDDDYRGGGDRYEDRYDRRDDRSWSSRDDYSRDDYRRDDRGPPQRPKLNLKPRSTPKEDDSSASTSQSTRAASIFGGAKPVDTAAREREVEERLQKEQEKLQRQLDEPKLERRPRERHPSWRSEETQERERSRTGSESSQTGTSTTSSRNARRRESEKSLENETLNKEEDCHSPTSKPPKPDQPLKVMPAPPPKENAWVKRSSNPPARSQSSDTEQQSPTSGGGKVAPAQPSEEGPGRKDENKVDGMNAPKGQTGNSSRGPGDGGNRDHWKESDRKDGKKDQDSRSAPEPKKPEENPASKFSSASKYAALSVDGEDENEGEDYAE

[46] = target: RuvB-like 1 (Homo sapiens) (UniProt Q9Y265)
[47] = target: 5'-AMP-activated protein kinase subunit beta-1 (Homo sapiens) (UniProt Q9Y478)
5'-AMP-activated protein kinase subunit beta-1 (Homo sapiens), sequence (Q9Y478 whole entry): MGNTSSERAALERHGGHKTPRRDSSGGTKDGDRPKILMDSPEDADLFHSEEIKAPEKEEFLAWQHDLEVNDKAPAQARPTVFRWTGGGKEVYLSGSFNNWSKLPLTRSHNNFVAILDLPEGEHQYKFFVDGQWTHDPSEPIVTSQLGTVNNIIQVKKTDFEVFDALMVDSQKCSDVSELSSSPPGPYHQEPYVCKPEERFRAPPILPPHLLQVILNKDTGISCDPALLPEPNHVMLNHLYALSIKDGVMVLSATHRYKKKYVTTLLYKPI
Further: assay method not described here.

`Cc1ccc(C(=O)Nc2cccc(C(F)(F)F)c2)cc1Nc1nc(-c2cccnc2)nc2nn(C)cc12` showed an ED50 [1] of 6.14 µM, an ED50 [2] of 131 µM and an ED50 [3] of 30.9 µM. For the same compound, the ED50 [4] was 0.877 µM, the ED50 [5] was 1.94 µM and the ED50 [6] was 1.3 µM. For the same compound, the ED50 [7] was 36.4 µM, the ED50 [8] was 0.102 µM and the ED50 [9] was 0.0301 µM. For the same compound, the ED50 [10] was 0.136 µM, the ED50 [11] was 63.1 µM and the ED50 [12] was 10.8 µM. It also gave an ED50 [13] of 9.95 µM, an ED50 [14] of 0.0181 µM and an ED50 [15] of 1.68 µM. For the same compound, the ED50 [16] was 0.501 µM, the ED50 [17] was 2.66 µM and the ED50 [18] was 0.0265 µM. The ED50 [19] was 2.63 µM, the ED50 [20] was 2.23 µM and the ED50 [21] was 2.4 µM. It also gave an ED50 [22] of 7.92 µM, an ED50 [23] of 3690 µM and an ED50 [24] of 6.57 µM. For the same compound, the ED50 [25] was 1.44 µM, the ED50 [26] was 6.69 µM and the ED50 [27] was 0.0593 µM. The ED50 [28] was 107 µM, the ED50 [29] was 0.103 µM and the ED50 [30] was 0.0059 µM. For the same compound, the ED50 [31] was 145 µM, the ED50 [32] was 10.8 µM and the ED50 [33] was 16.5 µM. For the same compound, the ED50 [34] was 9.35 µM, the ED50 [35] was 1.33 µM and the ED50 [36] was 3.15 µM. The ED50 [37] was 0.0885 µM, the ED50 [38] was 11.7 µM and the ED50 [39] was 4.67 µM. For the same compound, the ED50 [40] was 0.419 µM, the ED50 [41] was 0.0409 µM and the ED50 [42] was 5.25 µM. For the same compound, the ED50 [43] was 9.78 µM, the ED50 [44] was 14.7 µM and the ED50 [45] was 0.0001 µM. The ED50 [46] was 8.41 µM and the ED50 [47] was 5.82 µM.
`Cc1ccc(C(=O)Nc2cccc(C(F)(F)F)c2)cc1Nc1nc(-c2cccnc2)nc2c1cnn2C` showed an ED50 [1] of 0.364 µM, an ED50 [2] of 219 µM and an ED50 [3] of 3.06 µM. For the same compound, the ED50 [4] was 0.0563 µM, the ED50 [5] was 6.34 µM and the ED50 [6] was 0.97 µM. For the same compound, the ED50 [7] was 6.35 µM, the ED50 [8] was 3.15 µM and the ED50 [9] was 3.14 µM. The ED50 [10] was 0.484 µM, the ED50 [11] was 18.4 µM and the ED50 [12] was 11.1 µM. For the same compound, the ED50 [13] was 1.64 µM, the ED50 [14] was 0.144 µM and the ED50 [15] was 0.177 µM. It also gave an ED50 [16] of 45.5 µM, an ED50 [17] of 2.67 µM and an ED50 [18] of 0.124 µM. It also gave an ED50 [19] of 0.00259 µM, an ED50 [20] of 11 µM and an ED50 [21] of 5.41 µM. It also gave an ED50 [22] of 0.00528 µM, an ED50 [23] of 23.3 µM and an ED50 [24] of 0.0176 µM. It also gave an ED50 [25] of 0.00521 µM, an ED50 [26] of 117 µM and an ED50 [27] of 0.108 µM. For the same compound, the ED50 [28] was 1.74 µM, the ED50 [29] was 0.0217 µM and the ED50 [30] was 17.4 µM. The ED50 [31] was 7.96 µM, the ED50 [32] was 6.52 µM and the ED50 [33] was 0.0107 µM. It also gave an ED50 [34] of 3.64 µM, an ED50 [35] of 11.6 µM and an ED50 [36] of 0.0981 µM. The ED50 [37] was 0.00363 µM, the ED50 [38] was 4.25 µM and the ED50 [39] was 2.53 µM. For the same compound, the ED50 [40] was 0.00217 µM, the ED50 [41] was 3.6 µM and the ED50 [42] was 0.176 µM. For the same compound, the ED50 [43] was 2.57 µM, the ED50 [44] was 106 µM and the ED50 [45] was 0.449 µM. It also gave an ED50 [46] of 4.25 µM and an ED50 [47] of 3.25 µM.
